Data set [1] relates to NK92 cells. The data set is described as follows: Recovery of cytotoxicity of NK92 cells decreased by TGF-β (calcein-AM release). Format: cell-based. As to conditions: effector NK92 cells pretreated with 20 μM peptide or 5 μM SB431542 plus 10 ng/ml TGF-β; target cells H460, H3122, K562; E:T 20:1; 4 hours. How it is done:
NK92 cells were cultured in a 37° C. CO2 incubator (water jacketed incubator, Thermo electron corporation) supplied with 5% CO2 by adding an α-MEM (Welgene) culture medium added with 12.5% fetal bovine serum (FBS, Corning, united states origin, 35-015-CV) and 12.5% horse serum (Gibco) according to ATCC culture conditions with 0.2 mM myo-inositol, 0.1 mM 2-mercaptoethanol, 0.02 mM folic acid, 1% antibiotics-antimycotic (Gibco) and IL-2 cytokine (Peprotech) at a concentration of 20 ng/ml to be used as a culture medium.
The cells were cultured in about 20 to 30 ml in a T-75 flask (Thermo) at a concentration of 1×10^5 cells/ml, and centrifuged at 1000 rpm for 5 minutes every 2 to 3 days using a centrifuge (Beckman Coulter) to remove the supernatant, and then the culture medium was replaced. […]
The target cells stained with calcein-AM in Example [2-2] were dispensed in a 96-well plate, respectively, and treated with the effector cells prepared in Example [2-1]. […] The culture medium cultured above was centrifuged at 100 rcf for 5 minutes to separate the supernatant, and 100 μl each was dispensed into a 96-well black plate, and then ELISA assay (Fluorescence 480 nm/530 nm, SpectraMax i3x Molecular Device) was performed.

A further data set deals with primary NK cells. The experiment in a line: Recovery of cytotoxicity of primary NK cells decreased by TGF-β (calcein-AM release). As to conditions: effector primary NK cells pretreated with 20 μM peptide plus 10 ng/ml TGF-β; target cells H460, H3122, K562; E:T 10:1; 4 hours. Format: cell-based, human. How it is done:
2 μl of Rosettesep Human CD3 depletion cocktail (STEMCELL technologies, catalog #15621) per 1 ml of blood was added to umbilical cord blood (IRB approval number P01-201610-31-002) donated from the hospital and reacted for 20 minutes. […] At this time, it could be noted that the blood and the Ficoll layer were not mixed. To separate the cell layer from the blood, red blood cells and CD3 cells were isolated and discharged from the blood by centrifugation under conditions of 2000 rpm and Decel 0 for 25 minutes using a centrifuge (Beckman Coulter). The CD3-isolated cells reacted with 10 ml of an ACK buffer for 10 minutes to remove remaining red blood cells, and then washed twice using phosphate-buffered saline (PBS) added with 2% FBS. The washing was performed by centrifuging at 1500 rpm for 5 minutes using a centrifuge (Beckman Coulter) to remove the supernatant. The cells obtained above were used to be cultured as NK cells.
The NK cells were cultured by adding alpha-MEM (Welgene) added with 10% FBS (Corning, United States origin, 35-015-CV) with 10 ng/ml IL-15 (Peprotech), 10 ng/ml IL-21 (Peprotech), […] hydrocortisone (Peprotech) and 1% antibiotics-antimycotic (Gibco). […]

Data set [2] relates to H460 lung cancer cell line. The data set is described as follows: Recovery of sensitivity of NK cells to cancer cells decreased by TGF-β. Format: cell-based. As to conditions: H460 target cells pretreated with 20 μM peptide or 5 μM SB431542 plus 10 ng/ml TGF-β; fresh NK92 effector cells, E:T 20:1; 4 hours. How it is done:
To this end, first, 1×10^5 cells/ml of a H460 lung cancer cell line was added with 20 μM the peptide of Example [1-5] or 5 μM a TGF-β signal inhibitor SB431542, respectively, cultured at 37° C. for 2 hours, and then added with 10 ng/ml of TGF-β, and cultured again for 24 hours under the same conditions, respectively. Then, the cells were added with 20 μM the peptide of Example [1-5] or 5 μM SB431542, cultured at 37° C. for 2 hours, and then added with 10 ng/ml of TGF-β, and cultured under the same conditions for 24 hours, respectively. 1×10^6 cells/ml of the H460 cells cultured above were cultured for 1 hour at 37° C. with a culture medium added with 5 μl of calcein-AM (Invitrogen) and stained, and then centrifuged at 1000 rpm for 5 minutes and washed to be prepared as ‘target cells.’
As described above, the target cells stained with calcein-AM were dispensed in a 96-well plate, respectively, and treated with untreated (fresh) NK92 cells as effector cells at an E:T ratio of 20:1, and cultured at 37° C. for 4 hours. The culture medium cultured above was centrifuged at 100 rcf for 5 minutes to separate the supernatant, and 100 μl each was dispensed into a 96-well black plate, and then ELISA assay (Fluorescence 480 nm/530 nm, SpectraMax i3x Molecular Device) was performed.

Data set [3] concerns NK92 cells. The data set is described as follows: Fratricide inhibition of NK cells. As to conditions: NK92 target cells pretreated with 20 μM peptide or 5 μM SB431542 plus 10 ng/ml TGF-β; fresh NK92 (20:1) or primary NK (10:1) effector cells; 4 hours. Format: cell-based. On the procedure: To this end, 1×10^6 cells/ml of the NK92 cells cultured in the same manner as Example [2-1] were cultured for 1 hour at 37° C. with a culture medium added with 5 μl of calcein-AM (Invitrogen) and stained, and then centrifuged at 1000 rpm for 5 minutes and washed to be prepared as ‘target cells.’ As described above, the target cells stained with calcein-AM were dispensed in a 96-well plate, respectively, and treated with untreated (fresh) NK92 cells or primary NK cells as effector cells at the ratio of 20:1 or 10:1 in the same manner as Example [2-3], and cultured at 37° C. for 4 hours. The culture medium cultured above was centrifuged at 100 rcf for 5 minutes to separate the supernatant, and 100 μl each was dispensed into a 96-well black plate, and then ELISA assay (Fluorescence 480 nm/530 nm, SpectraMax i3x Molecular Device) was performed.

Where no end group is shown, it is not given here.

As for “GSKKVILDLPLVI [peptide of Example [1-5]]”, in the data set with NK92 cells [1], the “cytotoxicity of NK92 cells” value was “recovered”. Moreover, the “cytotoxicity of primary NK cells” value in the data set on primary NK cells is given as “equally confirmed”. In data set [2], the “cytotoxicity of the NK cells for treated H460 cells” value is reported as “recovered again”.

Turning to `NC(=O)c1ccc(-c2nc(-c3ccc4c(c3)OCO4)c(-c3ccccn3)[nH]2)cc1` [SB431542], in the data set with NK92 cells [1], the “cytotoxicity of NK92 cells” value is reported as “recovered”. Besides, in data set [2], the “cytotoxicity of the NK cells for treated H460 cells” value is “recovered again”. In addition, the “fratricide activity of the NK cells” value with NK92 cells [3] is on record as “significantly reduced”.

The values above are taken from patent US20250230190A1, “COMPOSITION FOR ENHANCING ACTIVITY OF NATURAL KILLER CELLS” (Ingenium Therapeutics, priority 2021, published 2025).
